Assays:
AML012 = primary AML patient cells; assay: area under dose-response curve (cell viability), primary AML patient cells (AUC (arbitrary, % viability x log concentration; ComBat batch-corrected)); higher = less sensitive (more viable); settings: 4 days; sample type: primary AML patient cells
Method in brief: (§1)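 Drug response was scored as area under the fitted curve, with ComBat used to remove batch effects. The curves were four-parameter fits to CellTiter-Glo viability readings taken 4 days after drugs were added, in duplicate, at eight concentrations within 10^–12–10^–4 M. The cells were blast-enriched primary AML samples, thawed with DNase, precultured 48 h in IMDM with horse serum, fetal calf serum and low stem cell factor, and seeded at 5000 cells/well on extracellular-matrix-coated 384-well plates.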

AML.083 = primary AML patient cells; assay: as above; settings: 4 days; sample type: primary AML patient cells
Method in brief: as §1

AML.030 = primary AML patient cells; assay: as above; settings: 4 days; sample type: primary AML patient cells
Method in brief: as §1

AML099 = primary AML patient cells; assay: as above; settings: 4 days; sample type: primary AML patient cells
Method in brief: as §1

AML098 = primary AML patient cells; assay: as above; settings: 4 days; sample type: primary AML patient cells
Method in brief: as §1

AML062 = primary AML patient cells; assay: as above; settings: 4 days; sample type: primary AML patient cells
Method in brief: as §1

MOLM/16 = assay: area under dose-response curve (cell viability) (AUC (arbitrary, % viability x log concentration)); higher = less sensitive (more viable); settings: 4 days
Method in brief: (§2)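 Fourteen leukemia cell lines were plated on extracellular-matrix-coated 384-well plates. Drugs were added robotically the next day at eight concentrations spanning 4–5 logs within 10^–12–10^–4 M, tailored per drug, in duplicate. Viability was read with CellTiter-Glo after 4 days. The value is the area under a four-parameter sigmoid fitted to the duplicate-averaged dose-response.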

OCI-AML3 = assay: as above; settings: 4 days
Method in brief: as §2

PL-21 = assay: as above; settings: 4 days
Method in brief: as §2

HL60 = assay: as above; settings: 4 days
Method in brief: as §2

U937 = assay: as above; settings: 4 days
Method in brief: as §2

EOL-1 = assay: as above; settings: 4 days
Method in brief: as §2

KG1 = assay: as above; settings: 4 days
Method in brief: as §2

NB4 = assay: as above; settings: 4 days
Method in brief: as §2

OCI-AML2 = assay: as above; settings: 4 days
Method in brief: as §2

SKM1 = assay: as above; settings: 4 days
Method in brief: as §2

THP-1 = assay: as above; settings: 4 days
Method in brief: as §2

MV4.11 = assay: as above; settings: 4 days
Method in brief: as §2

KASUMI1 = assay: as above; settings: 4 days
Method in brief: as §2

MOLM/13 = assay: as above; settings: 4 days
Method in brief: as §2

| SMILES | area under dose-response curve (AML012) | area under dose-response curve (AML.083) | area under dose-response curve (AML.030) | area under dose-response curve (AML099) | area under dose-response curve (AML098) | area under dose-response curve (AML062) | area under dose-response curve (MOLM/16) | area under dose-response curve (OCI-AML3) | area under dose-response curve (PL-21) | area under dose-response curve (HL60) | area under dose-response curve (U937) | area under dose-response curve (EOL-1) | area under dose-response curve (KG1) | area under dose-response curve (NB4) | area under dose-response curve (OCI-AML2) | area under dose-response curve (SKM1) | area under dose-response curve (THP-1) | area under dose-response curve (MV4.11) | area under dose-response curve (KASUMI1) | area under dose-response curve (MOLM/13) |
| --- | --- | --- | --- | --- | --- | --- | --- | --- | --- | --- | --- | --- | --- | --- | --- | --- | --- | --- | --- | --- |
| CN(Cc1cnc2nc(N)nc(N)c2n1)c1ccc(C(=O)N[C@@H](CCC(=O)O)C(=O)O)cc1 [Methotrexate] | 812 | 815 | 753 | 796 | 861 | 843 | 573 | 189 | 503 | 751 | 448 | 635 | 762 | 21.3 | 49.3 | 597 | 366 | 49.4 | 708 | 28.8 |
| CO[C@@]12[C@H](COC(N)=O)C3=C(C(=O)C(C)=C(N)C3=O)N1C[C@@H]1N[C@@H]12 [Mitomycin C] | 632 | 536 | 632 | 579 | 479 | 601 | 341 | 341 | 486 | 419 | 369 | 274 | 471 | 309 | 203 | 387 | 384 | 181 | 453 | 322 |
| O=C1c2c(O)ccc(O)c2C(=O)c2c(NCCNCCO)ccc(NCCNCCO)c21 [Mitoxantrone] | ≥ 529 | 443 | 526 | 372 | 399 | 349 | 237 | 288 | 332 | 306 | 205 | 135 | 344 | 214 | 187 | 249 | 311 | 153 | 285 | 185 |
| FC(F)(F)c1ccc(/C=C/c2nc(COc3ccc(CCCCn4ccnn4)cc3)co2)cc1 [Mubritinib] | 850 | 766 | 771 | 762 | 676 | 731 | 402 | 529 | 515 | 611 | 431 | 404 | 561 | 496 | 547 | 588 | 514 | 560 | 534 | 604 |
| CCNC(=O)c1noc(-c2cc(C(C)C)c(O)cc2O)c1-c1ccc(CN2CCOCC2)cc1 [NVP-AUY-922] | 363 | 423 | 353 | 358 | 318 | 305 | 147 | 262 | 251 | 299 | 222 | 149 | 331 | 229 | 178 | 208 | 359 | 144 | 213 | 313 |
| Cc1c(C(=O)Nc2ccc(N3C[C@@H](C)O[C@@H](C)C3)nc2)cccc1-c1ccc(OC(F)(F)F)cc1 [NVP-LDE-225] | 826 | 795 | 778 | 757 | 824 | 762 | 609 | 640 | 614 | 685 | 673 | 580 | 675 | 582 | 642 | 645 | 660 | 656 | 658 | 643 |
| COc1cc(N2CCC(N3CCN(C)CC3)CC2)ccc1Nc1ncc(Cl)c(Nc2ccccc2S(=O)(=O)C(C)C)n1 [NVP-TAE-684] | 746 | 757 | 774 | 687 | 743 | 740 | 551 | 603 | 511 | 580 | 651 | 501 | 536 | 591 | 541 | 576 | 644 | 548 | 560 | 556 |
| Cc1cn(-c2cc(NC(=O)c3ccc(C)c(Nc4nccc(-c5cccnc5)n4)c3)cc(C(F)(F)F)c2)cn1 [Nilotinib] | 699 | 727 | 722 | 677 | 713 | ≥ 820 | 599 | 625 | 550 | 632 | 604 | 300 | 624 | 626 | 633 | 627 | 605 | 601 | 458 | 604 |
| COc1cccc2cc(-c3nc([C@H]4CC[C@H](C(=O)O)CC4)n4ncnc(N)c34)[nH]c12 [OSI-027] | ≤ 530 | 547 | 574 | 616 | 554 | 660 | 429 | 509 | 491 | 576 | 489 | 350 | 383 | 576 | 506 | 548 | 566 | 499 | 521 | 516 |
| C[C@]1(O)C[C@@H](c2nc(-c3ccc4ccc(-c5ccccc5)nc4c3)c3c(N)nccn32)C1 [OSI-906] | 689 | 654 | 698 | 719 | 739 | 672 | 531 | 603 | 478 | 481 | 631 | 498 | 594 | 561 | 534 | 533 | 658 | 641 | 503 | 616 |
| COC1=CC(c2cc3ccccc3[nH]2)=N/C1=C\c1[nH]c(C)cc1C [Obatoclax] | 626 | 611 | 612 | 552 | 495 | 581 | 395 | 373 | 345 | 338 | 376 | 327 | 366 | 374 | 324 | 435 | 308 | 390 | 321 | 365 |
| O=C(c1cc(Cc2n[nH]c(=O)c3ccccc23)ccc1F)N1CCN(C(=O)C2CC2)CC1 [Olaparib] | 710 | 620 | ≤ 564 | 740 | 739 | 723 | 575 | 609 | 569 | 657 | 632 | 549 | 646 | 573 | 509 | 592 | 656 | 500 | 639 | 530 |
| C[C@@H]1C[C@H]2[C@@H]3CCC4=CC(=O)C=C[C@]4(C)[C@@]3(F)[C@@H](O)C[C@]2(C)[C@@]1(O)C(=O)CO [dexamethasone] | 924 | 628 | 679 | 737 | 747 | 675 | 715 | 710 | 598 | 806 | 576 | 766 | 689 | 610 | 653 | 615 | 795 | 767 | 538 | 657 |

— the supplement of paper PMC5752671
